One molecule from patent US11026944B2, “Compositions and methods for treating insomnia” (Eisai R&D Management Co., Ltd., priority 2014, dated 2021) can be followed below.

Data set [1] concerns subjects with primary insomnia. The data set is described as follows: 001 Study Part B: polysomnography (LPS, WASO, SE). In kind it is in vivo, human. Conditions: zolpidem 10 mg single evening dose. From the text:
For Part B, 58 otherwise healthy subjects with primary insomnia were randomized across three cohorts, and stratified by gender. Part B also included an active control (zolpidem) and matching placebo. In each cohort, there were approximately 12 subjects in the compound A/zolpidem-matched placebo group, approximately four subjects in the zolpidem/compound A-matched placebo group, and approximately four subjects in the compound A-matched placebo/zolpidem-matched placebo group. Part B dosing occurred in the evening, 30 minutes prior to the sleep period. The starting dose for Part B was 3 dose levels that determined to be safe and well tolerated in Part A. Subsequent dose levels in Part B were determined based on the PD results of the first cohort in Part B and PD and safety results from at least 3 completed higher dose cohorts in Part A. Each cohort in Part B was divided into at least two groups, with dosing of each group staggered by a minimum of 2 days.
(§1) After the initial Screening visit, eligible subjects were scheduled to return to the clinic for 2 days during the Screening Period to conduct screening/baseline PSGs. These two days occurred at least 3 days after the initial Screening visit and within a window from Day-7 to Day-6 (±2 days). The first PSG was used to screen for sleep apnea and periodic limb movements in sleep (PLMS) and serve as the first baseline PSG. The second PSG was used as the second baseline PSG. Specific PSG variables were used to determine whether subjects met PSG inclusion criteria, and the average of PSG variables from these two PSGs was used as Baseline for this PD measure. Subjects who had met PSG inclusion criteria returned to the clinic on Day-1 for additional baseline procedures and randomization. Subjects were not allowed to nap on Day 1. On the evening of Day 1, after fasting a minimum of 3 hours, study drug was administered 30 minutes prior to the subject's habitual bedtime (lights-out), as calculated from the sleep diary for the first PSG during the Screening Period. PK blood samples were collected at prespecified timepoints, and PD assessments were performed. PSG was recorded on Day 1, postdose. Subjects were administered additional PD assessments each morning on Day 1 through Day 6. These assessments included the KSS, DSST, and PVT, in order to assess daytime sleepiness, level of alertness, and ability to concentrate. The KSS and DSST were also administered 5 minutes predose and 25 minutes postdose on Day 1, just prior to lights-out. Waketime Questionnaires were administered after the PD assessments within 15 minutes of lights-on, on Day 1 to Day 6. Time and duration of naps was recorded on Day 2.
In addition, PSG was performed during the Screening Period at Days-7 and -6 (±2 days), and postdose on Day 1. An 8-hour diagnostic PSG consisting of electroencephalogram (EEG), electrooculogram (EOG), electromyogram (EMG), ECGs, leg electrodes, and measures of respiratory function (airflow, respiratory effort, and oxygen saturation) were performed starting at the subject's habitual bedtime as determined from the sleep diary for the 3 nights immediately prior to the first PSG on Day-7 (±2 days). PSG variables from this night were used to screen for sleep apnea and PLMS. On Day-6 (±2) and postdose on Day1, standard PSGs (i.e., not including leg electrodes or measures of respiratory function other than oxygen saturation) were performed. Specified PSG variables from these two PSGs conducted during the Screening Period were used to determine whether subjects met PSG inclusion criteria. The average of PSG variables from these two PSGs conducted during the Screening Period were used as baseline PSG values. The key PD parameters such as PSG LPS, TST, SE, and WASO have been obtained from all PSG recordings.

For data set [2], the system named is subjects with primary insomnia. The data set can be described thus: 001 Study Part B: next day KSS, DSST, PVT. The note with it: any dose of compound A (2.5, 10, 25 mg); zolpidem 10 mg. In kind it is in vivo, human.
Description: as §1
Part B subjects were administered the KSS, DSST, and PVT within 15 minutes after lights-on specifically in that order, on each morning from Day 1 through Day 6, followed by the Waketime Questionnaire. The KSS and DSST were also administered 5 minutes predose and 25 minutes postdose on Day 1 (just prior to lights-out).

Regarding `Cc1ccc(-c2nc3ccc(C)cn3c2CC(=O)N(C)C)cc1` [zolpidem, reference compound], the “change from Baseline in SE” value in data set [1] came to 13%. Also, in data set [2], the “next day effects on KSS, DSST, or PVT” value is given as “no clinically significant next day effects”.
